Literature values, collected in PMC11672368 (Therapeutic Advances in Medical Oncology, 2024).

Legend:
[1] = depot injection

Substance: degarelix
- incidence of injection-site reactions [1]: ~40%

Substance: leuprolide acetate
- achievement rate of serum total testosterone 0.2 ng/mL (serum testosterone): 57%

Substance: Triptorelin
- elimination half-life (t1/2): 5 h
